# Experimental data: US20210363152A1, “AMINOAZINE AMIDES” (Hoffmann-La Roche Inc., priority 2018, published 2021)
# pIC50: −log10 of the molar value.
# Molecular target: T1, Autotaxin enzyme (ATX) (Homo sapiens, UniProt Q13822)
# T1 construct: purchased Echelon Biosciences, Inc. E-4000
# Experiment: In vitro ATX assay (enzymatic ATX inhibition, LPC 14:0 substrate, choline oxidase/HRP absorbance readout)
# Format: biochemical
# Conditions: 0.3 mM LPC 14:0, 37° C., 4 hours, absorbance 555 nm
# Method: • Assay buffer: 100 mM Tris-HCl, pH 9.0, 500 mM NaCl, 5 mM MgCl2, 30 μM CoCl2, 0.05% Triton X-100 • Assay buffer II: 4.5 mM 4-AAP, 2.7 mM TOOS, 21.2 U/mL HRP, 3 U/mL CO, In 50 mM Tris-HCl pH 8.0, 4.5 mM MgCl2
# A compound preparation plate (Nunc 249944) was prepared by adding 30 mM stock solution (in DMSO) of test compound and performing a serial full-log dilution down to 30 nM. Two μL/well were transferred from the first compound prep plate to a compound dilution plate (Corning, 3641) and 198 μL assay buffer I was added for a […].
# A 10 ng/mL solution of ATX was prepared by diluting in assay buffer I, and 80 μL/well were added to the assay plate (Corning, 3641); negative control wells contained 80 μL/well assay buffer I only (no ATX). Ten μL/well from the compound dilution plate (containing serially diluted test compound or DMSO) were added to the assay plate, which was then incubated at 37° C. for 15 minutes. A solution of LPC 14:0 was prepared in assay buffer I at 3 mM and 10 μl/well were added to the assay plate, for a final concentration of 0.3 mM LPC, and returned to 37° C. incubator for 4 hours. After 4 hour incubation, 100 μL/well of assay buffer II was added to all wells of the assay plate. The plate was incubated at RT for 15 minutes, prior to reading on FlexStation in absorbance mode, 555 nm. Results in the enzymatic ATX inhibition assay are provided for compounds of formula (I). An IC50 value of “A” is less than 100 nM, “B” is equal to or greater than 100 nM but less than 1 μM, “C” is equal to or greater than 1 μM.
row,pIC50,SMILES
1,> 7.00,"CC(C)c1cc(CNc2ncc(C(=O)N3CCC3C)cn2)cc(OC(F)(F)F)c1 (single isomer, unassigned) [Example 69, (2-((3-Isopropyl-5-(trifluoromethoxy)benzyl)amino)pyrimidin-5-yl)(2-methylazetidin-1-yl)methanone]"
2,> 7.00,"CC(C)c1cc(CNc2ncc(C(=O)N3CCC3C)cn2)cc(OC(F)(F)F)c1 (single isomer, unassigned) [Example 70, (2-((3-Isopropyl-5-(trifluoromethoxy)benzyl)amino)pyrimidin-5-yl)(2-methylazetidin-1-yl)methanone]"
3,> 7.00,"O=C(c1cnc(NCc2cc(OC(F)(F)F)cc(C3CC3)c2)nc1)N1CCC12CCOC2 (single isomer, unassigned) [Example 116, (2-((3-Cyclopropyl-5-(trifluoromethoxy)-benzyl)amino)pyrimidin-5-yl)(6-oxa-1-azaspiro[3.4]octan-1-yl) methanone]"
4,> 7.00,"O=C(c1cnc(NCc2cc(OC(F)(F)F)cc(C3CC3)c2)nc1)N1CCC12CCOC2 (single isomer, unassigned) [Example 117, (2-((3-Cyclopropyl-5-(trifluoromethoxy)-benzyl)amino)pyrimidin-5-yl)(6-oxa-1-azaspiro[3.4]octan-1-yl) methanone]"
5,> 7.00,"CC1CC(C)N1C(=O)c1cnc(NCc2cc(OC(F)(F)F)cc(C3CC3)c2)nc1 (single isomer, unassigned) [Example 118, (2-((3-Cyclopropyl-5-(trifluoromethoxy)-benzyl)amino)pyrimidin-5-yl)(2,4-dimethylazetidin-1-yl)methanone]"
6,≤ 6.00,"CC1CC(C)N1C(=O)c1cnc(NCc2cc(OC(F)(F)F)cc(C3CC3)c2)nc1 (single isomer, unassigned) [Example 119, (2-((3-Cyclopropyl-5-(trifluoromethoxy)-benzyl)amino)pyrimidin-5-yl)(2,4-dimethylazetidin-1-yl)methanone]"
7,> 7.00,"CC1CC(C)N1C(=O)c1cnc(NCc2cc(OC(F)(F)F)cc(C3CC3)c2)nc1 (single isomer, unassigned) [Example 120, (2-((3-Cyclopropyl-5-(trifluoromethoxy)-benzyl)amino)pyrimidin-5-yl)(2,4-dimethylazetidin-1-yl)methanone]"
8,> 7.00,"O=C(c1cnc(NCc2cc(OC(F)(F)F)cc(C3CC3)c2)nc1)N1CCC12CCCOC2 (single isomer, unassigned) [Example 121, (2-((3-Cyclopropyl-5-(trifluoromethoxy)benzyl)amino)-pyrimidin-5-yl)(6-oxa-1-azaspiro[3.5]nonan-1-yl)methanone]"
9,> 7.00,"O=C(c1cnc(NCc2cc(OC(F)(F)F)cc(C3CC3)c2)nc1)N1CCC12CCCOC2 (single isomer, unassigned) [Example 122, (2-((3-Cyclopropyl-5-(trifluoromethoxy)benzyl)amino)-pyrimidin-5-yl)(6-oxa-1-azaspiro[3.5]nonan-1-yl)methanone]"
10,> 7.00,"CC(C)c1cc(CNc2ncc(C(=O)N3CCC34COC4)cn2)cc(OC(F)(F)F)c1 [Example 1, (2-((3-Isopropyl-5-(trifluoromethoxy)benzyl)amino)pyrimidin-5-yl) (6-oxa-1-azaspiro[3.3]heptan-1-yl)methanone]"
11,6.00 to 7.00,O=C(c1cnc(NCc2cccc(OC(F)(F)F)c2)nc1)N1CCC12COC2 [Example 2]
12,≤ 6.00,O=C(c1cnc(NCc2cccc(OC(F)(F)F)c2)nc1)N1CC2(COC2)C1 [Example 3]
13,> 7.00,CC(C)(C)c1cc(CNc2ncc(C(=O)N3CCC34COC4)cn2)cc(OC(F)(F)F)c1 [Example 4]
14,6.00 to 7.00,CC1CCN1C(=O)c1cnc(NCc2cc(OC(F)(F)F)cc(C(C)(C)C)c2)nc1 (centres unmarked) [Example 5]
15,> 7.00,CC(C)c1cc(CNc2ncc(C(=O)N3CCC3C)cn2)cc(OC(F)(F)F)c1 (centres unmarked) [Example 6]
16,6.00 to 7.00,O=C(c1cnc(NC2Cc3ccccc3C2)nc1)N1CCC12COC2 [Example 7]
17,6.00 to 7.00,O=C(c1cnc(NC2Cc3ccccc3C2)nc1)N1CCC1 [Example 8]
18,6.00 to 7.00,CC1CCN1C(=O)c1cnc(NCc2cc(C(F)(F)F)cc(C(F)(F)F)c2)nc1 (centres unmarked) [Example 9]
19,6.00 to 7.00,CC1CCN1C(=O)c1cnc(NCc2cc(Cl)cc(Cl)c2)nc1 (centres unmarked) [Example 10]
20,≤ 6.00,COc1cc(CNc2ncc(C(=O)N3CCC3C)cn2)cc(OC)c1 (centres unmarked) [Example 11]

row,pIC50,SMILES
1,6.00 to 7.00,Cc1cc(CNc2ncc(C(=O)N3CCC3C)cn2)cc(OC(F)(F)F)c1 (centres unmarked) [Example 12]
2,≤ 6.00,CC(Nc1ncc(C(=O)N2CCC23COC3)cn1)c1cccc(OC(F)(F)F)c1 (centres unmarked) [Example 13]
3,≤ 6.00,N#Cc1cccc(CNc2ncc(C(=O)N3CCC34COC4)cn2)c1 [Example 14]
4,≤ 6.00,O=C(c1cnc(NCc2cccc(Cl)c2)nc1)N1CCC12COC2 [Example 15]
5,≤ 6.00,CS(=O)(=O)c1cccc(CNc2ncc(C(=O)N3CCC34COC4)cn2)c1 [Example 16]
6,≤ 6.00,O=C(c1cnc(NCc2cccc(OC(F)F)c2)nc1)N1CCC12COC2 [Example 17]
7,≤ 6.00,O=C(c1cnc(NCc2cccc(C(F)F)c2)nc1)N1CCC12COC2 [Example 18]
8,6.00 to 7.00,CC(C)c1cc(CNc2ncc(C(=O)N3CCC34COC4)cn2)cc(S(F)(F)(F)(F)F)c1 [Example 19]
9,≤ 6.00,O=C(c1cnc(NCc2cccc(C(F)(F)F)c2)nc1)N1CCC12COC2 [Example 20]
10,> 7.00,CC(C)c1cc(CNc2ncc(C(=O)N3CCCC3)cn2)cc(OC(F)(F)F)c1 [Example 21]
11,6.00 to 7.00,CC(C)c1cc(CNc2ncc(C(=O)N3CCCCC3)cn2)cc(OC(F)(F)F)c1 [Example 22]
12,> 7.00,O=C(c1cnc(NCc2cc(OC(F)(F)F)cc(C3CCC3)c2)nc1)N1CCC12COC2 [Example 23]
13,6.00 to 7.00,O=C(c1cnc(NCc2cccc(S(F)(F)(F)(F)F)c2)nc1)N1CCC12COC2 [Example 24]
14,> 7.00,O=C(c1cnc(NCc2cc(Br)cc(OC(F)(F)F)c2)nc1)N1CCC12COC2 [Example 25]
15,6.00 to 7.00,O=C(c1cnc(NCc2cc(F)cc(OC(F)(F)F)c2)nc1)N1CCC12COC2 [Example 26]
16,> 7.00,O=C(c1cnc(NCc2cc(OCC3CC3)cc(OC(F)(F)F)c2)nc1)N1CCC12COC2 [Example 27]
17,> 7.00,CC(C)Oc1cc(CNc2ncc(C(=O)N3CCC34COC4)cn2)cc(OC(F)(F)F)c1 [Example 28]
18,6.00 to 7.00,COc1cc(CNc2ncc(C(=O)N3CCC34COC4)cn2)cc(OC(F)(F)F)c1 [Example 30]
19,> 7.00,CCOc1cc(CNc2ncc(C(=O)N3CCC34COC4)cn2)cc(OC(F)(F)F)c1 [Example 31]
20,6.00 to 7.00,COc1ccc2c(c1)CC(Nc1ncc(C(=O)N3CCC34COC4)cn1)C2 (centres unmarked) [Example 32]

row,pIC50,SMILES
1,> 7.00,O=C(c1cnc(NC2Cc3ccc(Cl)cc3C2)nc1)N1CCC12COC2 (centres unmarked) [Example 33]
2,6.00 to 7.00,N#Cc1ccc2c(c1)CC(Nc1ncc(C(=O)N3CCC34COC4)cn1)C2 (centres unmarked) [Example 34]
3,> 7.00,O=C(c1cnc(NCc2cc(OCC(F)(F)F)cc(OC(F)(F)F)c2)nc1)N1CCC12COC2 [Example 35]
4,> 7.00,O=C(c1cnc(NCc2cc(C3CC3)cc(C(F)(F)F)c2)nc1)N1CCC12COC2 [Example 36]
5,> 7.00,O=C(c1cnc(NCc2cc(C3CC3)cc(C3CC3)c2)nc1)N1CCC12COC2 [Example 37]
6,> 7.00,CC(C)Oc1cc(CNc2ncc(C(=O)N3CCC34COC4)cn2)cc(C2CC2)c1 [Example 38]
7,> 7.00,CCCc1cc(CNc2ncc(C(=O)N3CCC34COC4)cn2)cc(OC(C)C)c1 [Example 39]
8,> 7.00,CN1CCC2(CC1)CCN2C(=O)c1cnc(NC2Cc3ccc(Cl)cc3C2)nc1 (centres unmarked) [Example 40]
9,> 7.00,CC1(C)CCN1C(=O)c1cnc(NC2Cc3ccc(Cl)cc3C2)nc1 (centres unmarked) [Example 41]
10,> 7.00,O=C(c1cnc(NC2Cc3ccc(F)cc3C2)nc1)N1CCC12COC2 (centres unmarked) [Example 42]
11,> 7.00,O=C(c1cnc(NC2Cc3ccc(Br)cc3C2)nc1)N1CCC12COC2 (centres unmarked) [Example 43]
12,> 7.00,CC1CCN1C(=O)c1cnc(NC2Cc3ccc(Cl)cc3C2)nc1 (centres unmarked) [Example 44]
13,> 7.00,O=C(c1cnc(NC2Cc3ccc(Cl)cc3C2)nc1)N1CCC1C(F)F (centres unmarked) [Example 45]
14,> 7.00,O=C(c1cnc(NC2Cc3ccc(Cl)cc3C2)nc1)N1CCCC12COC2 (centres unmarked) [Example 46]
15,> 7.00,O=C(c1cnc(NC2Cc3ccc(Cl)cc3C2)nc1)N1CCC12CCOCC2 (centres unmarked) [Example 47]
16,> 7.00,O=C(c1cnc(NC2Cc3ccc(Cl)cc3C2)nc1)N1CCC12CCCOC2 (centres unmarked) [Example 48]
17,> 7.00,O=C(c1cnc(NC2Cc3ccc(Cl)cc3C2)nc1)N1CCC12CS(=O)(=O)C2 (centres unmarked) [Example 49]
18,6.00 to 7.00,O=C(c1cnc(NCc2cc(Cl)cc(Cl)c2)nc1)N1CCC12COC2 [Example 50]
19,≤ 6.00,O=C(c1cnc(NCc2ccc(Cl)c(Cl)c2)nc1)N1CCC12COC2 [Example 51]
